According to patent US20140048061A1, “SYSTEM AND METHOD FOR ADMINISTERING ANESTHETICS WHILE PERFORMING CPR” (priority 2012, published 2014):
Marks after values point to notes of the source that are not given here.

Key:
[1] = system: pigs experiencing induced cardiac arrest; test: Pigs in induced VF cardiac arrest, untreated for 20 minutes, given inhaled isoflurane at the start of conventional manual CPR; format: in vivo
Description: As an example, Applicants conducted experiments on pigs experiencing induced cardiac arrest. Cardiac arrest was induced by generating ventricular fibrillation (VF) and pigs were left in untreated cardiac arrest for 20 minutes. At the initiation of conventional manual CPR, inhaled isoflurane at 4% was introduced via an anesthesia machine for a total of 3 minutes. The anesthesia was then turned off. After a total of 4 minutes of CPR the animals were then shocked back into a stable perfusing heart rhythm and the dose of isoflurane anesthesia was restarted at 1% to provide for anesthesia during the recovery period of the animals. […] Cardiac function based upon an assessment of the left ventricular (LV) ejection fraction (EF) after 1 and 4 hours was normal, as determined by echocardiography, and post resuscitation inotropic support was unnecessary due to the absence of hemodynamic instability. Two of the 4 animals had undetectable levels of markers of cardiac injury (creatinine phosphokinase MB and cardiac troponin [cTnI]), while 2 of the 4 animals had mild elevations of markers of cardiac injury (creatinine phosphokinase MB and cTnI) at 4 hours post ROSC (6.8±9 and 5.8±11 in ng/mL, respectively). […] Although the duration of untreated VF in the control animals was 5 minutes shorter, post ROSC left ventricular function was severely compromised (EF: 33±9%) and there was significant elevation of CKMB and cTnI at 4 hours post ROSC (26.5±13.7 and 31.2±14.3, p<0.05) compared to isoflurane treated animals resuscitated after 20 minutes of untreated VF. In the absence of anesthesia during CPR as described above, Applicants were been unable to resuscitate pigs after 20 minutes of untreated arrest with conventional CPR. These findings represent an important advance in the field of CPR.

[2] = system: animals after cardiac arrest and ROSC; test: Second cardiac arrest/CPR experiment, sevoflurane-treated (SPoC) vs control: left ventricle ejection fraction post ROSC; format: in vivo, pigs; settings: *P<0.05 vs controls
Description: (§1) Another experiment was conducted with similar results. In that experiment, the hearts were subsequently removed from 5 animals from each group 15 minutes post-ROSC for mitochondrial function testing. Compared with the control group, all mitochondrial function tests were improved in the sevoflurane treated animals.
(§2) Table 1 illustrates the mitochondrial function for complex I substrates pyruvate (P, 10 mM) and malate (M, 10 mM) and complex II substrate succinate (Suc, 10 mM) in control hearts vs. sevoflurane-treated hearts (SPoC). LVEF refers to the left ventricle ejection fraction percentage at 12 min post return of spontaneous circulation (ROSC). RCI refers to the respiratory control index (state 3/state 4 respiration). ATP refers to adenosine triphosphate synthesis and Ca Ret refers to calcium retention capacity until mitochondrial transition pore opening. The asterisk (*) refers to P of less than 0.05.

[3] = at 37° C.; cited from earlier work
[4] = system: heart mitochondria (complex I and complex II substrates); test: Mitochondrial function testing of hearts removed 15 minutes post-ROSC; format: in vivo, pigs
Description: as §1, §2

[5] = 4 hours post ROSC, 2 of 4 animals undetectable, 2 of 4 mild elevations
[6] = pyruvate 10 mM and malate 10 mM

Row | SMILES | cardiac troponin cTnI (marker of cardiac injury) [1, 5] | creatinine phosphokinase MB (marker of cardiac injury) [1, 5] | post resuscitation inotropic support ([1]; absence of hemodynamic instability) | cardiac function based on left ventricular (LV) ejection fraction (EF) ([1]; after 1 and 4 hours, by echocardiography) | shocks needed to achieve return of spontaneous circulation (ROSC) ([1]; all 4 animals, 20 min untreated VF, isoflurane 4% for 3 min, after 4 min CPR and one dose of 0.5 mg epinephrine) | LVEF (%) 12 min Post ROSC [2] | blood gas partition coefficient [3] | all mitochondrial function tests compared with the control group ([4]; 5 animals per group, hearts removed 15 min post-ROSC) | RCI P/M (respiratory control index, state 3/state 4 respiration) ([4]; complex I substrates pyruvate 10 mM and malate 10 mM, hearts removed 15 min post-ROSC) | RCI Suc (respiratory control index) ([4]; complex II substrate succinate 10 mM, hearts removed 15 min post-ROSC) | ATP P/M (adenosine triphosphate synthesis) [4, 6] | Ca Ret P/M (calcium retention capacity until mitochondrial transition pore opening) [4, 6] | ATP Suc (adenosine triphosphate synthesis) ([4]; succinate 10 mM) | Ca Ret Suc (calcium retention capacity until mitochondrial transition pore opening) ([4]; succinate 10 mM)
1 | FC(F)OC(Cl)C(F)(F)F (centres unmarked) [isoflurane] | 5.8 ± 11 ng/mL | 6.8 ± 9 ng/mL | unnecessary | normal | 1-2 shocks |  |  |  |  |  |  |  |  | 
2 | FCOC(C(F)(F)F)C(F)(F)F [sevoflurane] |  |  |  |  |  | 53 ± 16* % | 0.65 | improved | 11.4 ± 0.5* | 4.5 ± 0.2* | 148.5 ± 24.8* nm/min/mg | 318.8 ± 45.0* nm/min/mg | 132.3 ± 18.4* nm/min/mg | 474.0 ± 58.8* nm/min/mg
